Measured values reported in patent publication US11440923B2, “Substituted macrocyclic indole derivatives” (Bayer Aktiengesellschaft, priority 2017, dated 2022).
Where a name gives a salt, the structure may show the parent alone.

How the values were obtained:
[1] = target: T1, MCL-1 (Homo sapiens (Human), UniProt Q07820, K194A/K197A/R201A); assay: Protein-compound interaction assay (SPR assay, Assay 9); type: binding; settings: for Kd: KD (geometric mean), SPR, 25° C.; for koff: read-out: koff (geometric mean), SPR, 25° C.; for kon: read-out: kon (geometric mean), SPR, 25° C.
Text: Assay 9 Protein-Compound Interaction Assay (SPR Assay)
The ability of the compounds described in this invention to bind to MCL-1 may be determined using surface plasmon resonance (SPR). This allows for the quantification of binding in terms of the equilibrium dissociation constant (KD [M]), as well as association and dissociation rate constants (kon [1/Ms] and koff [1/s], respectively). The measurements may be performed using Biacore® T200 or Biacore® S200 instruments (GE Healthcare).
Briefly, carboxymethylated dextran biosensor chips (Series S Sensor Chip CMS, GE Healthcare) were activated with 1-ethyl-3-(3-dimethylaminopropyl)-carbodiimide hydrochloride (EDC) and N-hydroxysuccinimide (NHS) according to the supplier's instructions. MBP-MCL-1 was diluted in 1×PBS-P+ (GE Healthcare) and injected on the activated chip surface. Subsequently, a solution of 1 M ethanolamine-HCl (GE Healthcare) was injected to block unreacted groups, resulting in approximately 400-2500 response units (RU) of immobilized protein. A reference surface was generated by treatment with NHS-EDC and ethanolamine-HCl. […] Compounds were injected for 60 s followed by a dissociation time of up to 1000 s.
The double-referenced sensorgrams were fit to a simple reversible Langmuir 1:1 reaction mechanism as implemented in the Biacore® T200 and S200 evaluation software (T200 evaluation software version 2.0 and S200 evaluation software version 1.0, GE Healthcare).
Target sequence in this assay (Q07820 whole entry K194A/K197A/R201A, looked up): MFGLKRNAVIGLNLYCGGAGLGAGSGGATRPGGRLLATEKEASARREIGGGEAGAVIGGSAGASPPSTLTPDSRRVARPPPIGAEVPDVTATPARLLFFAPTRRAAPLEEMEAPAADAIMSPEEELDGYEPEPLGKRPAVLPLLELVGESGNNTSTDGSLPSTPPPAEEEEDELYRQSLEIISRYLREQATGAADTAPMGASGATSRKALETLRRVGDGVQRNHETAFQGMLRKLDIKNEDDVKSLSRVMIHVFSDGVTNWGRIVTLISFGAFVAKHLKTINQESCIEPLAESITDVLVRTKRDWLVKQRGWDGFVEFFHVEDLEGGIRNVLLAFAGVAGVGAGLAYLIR

[2] = target: T1, MCL-1; assay: Protein-protein interaction assay MCL-1/Noxa BH3 peptide (MCL-1 assay, TR-FRET); type: binding; settings: MCL-1 Assay IC50 (median)
Outline: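 IC50 came from a 4-parameter regression of the 665/620 nm emission ratio, normalized to DMSO controls. The mix held 1 nM MBP-fused MCL-1 (residues 173-321), a biotin-Noxa BH3 tracer and compound in Tris buffer pH 7, incubated 10 min plus 1 h at 22° C., then overnight at 4° C.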
Target sequence in this assay (Q07820 whole entry, looked up, stated change not applied): as the sequence (Q07820 whole entry K194A/K197A/R201A, looked up) above, with A194K, A197K, A201R counted along it

Compound: Cc1c2c(nn1C)C(CCN1CCOCC1)OCCCCn1c(C(=O)O)c(CCCOc3cccc4cc(F)ccc34)c3ccc(Cl)c-2c31 (single isomer, unassigned; enantiomer 1) [Example 17, 4-chloro-7-{3-[(6-fluoronaphthalen-1-yl)oxy]propyl}-2,3-dimethyl-15-[2-(morpholin-4-yl)ethyl]-2,10,11,12,13,15-hexahydropyrazolo[4′,3′:9,10][1,6]oxazacycloundecino[8,7,6-hi]indole-8-carboxylic Acid—N-ethylethanamine (Enantiomer 1)]
- Kd [1]: 0.77 nM
- koff [1]: 0.015 s⁻¹
- kon [1]: 2e+07 M⁻¹ s⁻¹

Compound: CCc1c2c(nn1C)C(CCC1CCOCC1)OCCCCn1c(C(=O)O)c(CCCOc3cccc4cc(F)ccc34)c3ccc(Cl)c-2c31 (single isomer, unassigned; enantiomer 1) [Example 61, 4-chloro-3-ethyl-7-{3-[(6-fluoronaphthalen-1-yl)oxy]propyl}-2-methyl-15-[2-(oxan-4-yl)ethyl]-2,10,11,12,13,15-hexahydropyrazolo[4′,3′:9,10][1,6]oxazacycloundecino[8,7,6-hi]indole-8-carboxylic Acid (Enantiomer 1)]
- IC50 [2]: 0.46 nM
- Kd [1]: 1.3 nM
- koff [1]: 0.0021 s⁻¹
- kon [1]: 1.6e+06 M⁻¹ s⁻¹

Compound: Cc1c2c(nn1C)C(CCO)OCCCCn1c(C(=O)O)c(CCCOc3cccc4ccccc34)c3ccc(Cl)c-2c31 (single isomer, unassigned; enantiomer 1) [Example 31, (+)-4-chloro-15-(2-hydroxyethyl)-2,3-dimethyl-7-{3-[(naphthalen-1-yl)oxy]propyl}-2,10,11,12,13,15-hexahydropyrazolo[4′,3′:9,10][1,6]oxazacycloundecino[8,7,6-hi]indole-8-carboxylic Acid (Enantiomer 1)]
- IC50 [2]: 0.26 nM
- Kd [1]: 1.8 nM
- koff [1]: 0.008 s⁻¹
- kon [1]: 4.4e+06 M⁻¹ s⁻¹

Compound: CCc1c2c(nn1C)C(CCO)OCCCCn1c(C(=O)O)c(CCCOc3cccc4cc(F)ccc34)c3ccc(Cl)c-2c31 (racemic) [Example 44, (rac)-4-chloro-3-ethyl-7-{3-[(6-fluoronaphthalen-1-yl)oxy]propyl}-(15-rac)-(2-hydroxyethyl)-2-methyl-2,10,11,12,13,15-hexahydropyrazolo[4′,3′:9,10][1,6]oxazacycloundecino[8,7,6-hi]indole-8-carboxylic Acid]
- IC50 [2]: 0.39 nM

Compound: CCC1OCCCCn2c(C(=O)O)c(CCCOc3cccc4ccccc34)c3ccc(Cl)c(c32)-c2c1nn(C)c2C (racemic) [Example 25, (rac)-4-chloro-15-ethyl-2,3-dimethyl-7-{3-[(naphthalen-1-yl)oxy]propyl}-2,10,11,12,13,15-hexahydropyrazolo[4′,3′:9,10][1,6]oxazacycloundecino[8,7,6-hi]indole-8-carboxylic Acid]
- IC50 [2]: 1.9 nM

Compound: CCc1c2c(nn1C)C(CCC1CCOCC1)OCCCCn1c(C(=O)O)c(CCCOc3cccc4cc(F)ccc34)c3ccc(Cl)c-2c31 (single isomer, unassigned; enantiomer 2) [Example 62, (−)-4-chloro-3-ethyl-7-{3-[(6-fluoronaphthalen-1-yl)oxy]propyl}-2-methyl-15-[2-(oxan-4-yl)ethyl]-2,10,11,12,13,15-hexahydropyrazolo[4′,3′:9,10][1,6]oxazacycloundecino[8,7,6-hi]indole-8-carboxylic Acid (Enantiomer 2)]
- IC50 [2]: 120 nM

Compound: Cc1c2c(nn1C)C(CCN1CCOCC1)OCCCCn1c(C(=O)O)c(CCCOc3cccc4ccccc34)c3ccc(F)c-2c31 (racemic) [Example 7, (rac)-4-fluoro-2,3-dimethyl-15-[2-(morpholin-4-yl)ethyl]-7-[3-(naphthalen-1-yloxy)propyl]-2,10,11,12,13,15-hexahydropyrazolo[4′,3′:9,10][1,6]oxazacycloundecino[8,7,6-hi]indole-8-carboxylic Acid]
- IC50 [2]: 0.66 nM

Compound: CCc1c2c(nn1C)C(CCN1CCOCC1)OCCCCn1c(C(=O)O)c(CCCOc3cccc4cc(F)ccc34)c3ccc(Cl)c-2c31 (racemic) [Example 22, (rac)-4-chloro-3-ethyl-7-{3-[(6-fluoronaphthalen-1-yl)oxy]propyl}-2-methyl-15-[2-(morpholin-4-yl)ethyl]-2,10,11,12,13,15-hexahydropyrazolo[4′,3′:9,10][1,6]oxazacycloundecino[8,7,6-hi]indole-8-carboxylic Acid]
- IC50 [2]: 1.5 nM

Compound: CCc1c2c(nn1C)C(CCOC)OCCCCn1c(C(=O)O)c(CCCOc3cccc4cc(F)ccc34)c3ccc(Cl)c-2c31 (racemic) [Example 41, (rac)-4-chloro-3-ethyl-7-{3-[(6-fluoronaphthalen-1-yl)oxy]propyl}-(15-rac)-(2-methoxyethyl)-2-methyl-2,10,11,12,13,15-hexahydropyrazolo[4′,3′:9,10][1,6]oxazacycloundecino[8,7,6-hi]indole-8-carboxylic Acid]
- IC50 [2]: 0.52 nM

Compound: Cc1c2c(nn1C)C(CCN1CCOCC1)OCCCCn1c(C(=O)O)c(CCCOc3cccc4ccccc34)c3cccc-2c31 (single isomer, unassigned; stereoisomer 2) [Example 6, 2,3-dimethyl-15-[2-(morpholin-4-yl)ethyl]-7-[3-(naphthalen-1-yloxy)propyl]-2,10,11,12,13,15-hexahydropyrazolo[4′,3′:9,10][1,6]oxazacycloundecino[8,7,6-hi]indole-8-carboxylic Acid (Stereoisomer 2)]
- IC50 [2]: 51 nM

Compound: CCc1c2c(nn1C)C1CCCCN1CCCCn1c(C(=O)O)c(CCCOc3cccc4ccccc34)c3ccc(Cl)c-2c31 (racemic) [Example 102, (rac)-18-chloro-1-ethyl-2-methyl-15-[3-(1-naphthyloxy)propyl]-2,3b,4,5,6,7,9,10,11,12-decahydropyrazolo[3′,4′:8,9]pyrido[1′,2′:6,7][1,6]diazacycloundecino[10,11,1-hi]indole-14-carboxylic Acid]
- IC50 [2]: 1.4 nM

Compound: CCC1OCCCCn2c(C(=O)O)c(CCCOc3cccc4ccccc34)c3ccc(Cl)c(c32)-c2c1nn(C)c2C (single isomer, unassigned; enantiomer 1) [Example 29, (+)-4-chloro-15-ethyl-2,3-dimethyl-7-{3-[(naphthalen-1-yl)oxy]propyl}-2,10,11,12,13,15-hexahydropyrazolo[4′,3′:9,10][1,6]oxazacycloundecino[8,7,6-hi]indole-8-carboxylic Acid—N-ethylethanamine Salt (Enantiomer 1)]
- Kd [1]: 8.3 nM
- koff [1]: 0.014 s⁻¹
- kon [1]: 1.7e+06 M⁻¹ s⁻¹

Compound: Cc1c2c(nn1C)C(CCN1CCOCC1)OCCCCn1c(C(=O)O)c(CCCOc3cccc4cc(F)ccc34)c3ccc(F)c-2c31 (single isomer, unassigned; enantiomer 2) [Example 21, 4-fluoro-7-{3-[(6-fluoronaphthalen-1-yl)oxy]propyl}-2,3-dimethyl-15-[2-(morpholin-4-yl)ethyl]-2,10,11,12,13,15-hexahydropyrazolo[4′,3′:9,10][1,6]oxazacycloundecino[8,7,6-hi]indole-8-carboxylic Acid (Enantiomer 2)]
- IC50 [2]: 160 nM

Compound: Cc1c2c(nn1C)C(CCN1CCOCC1)OCCCCn1c(C(=O)O)c(CCCOc3cccc4cc(F)ccc34)c3ccc(Cl)c-2c31 (single isomer, unassigned; enantiomer 2) [Example 18, 4-chloro-7-{3-[(6-fluoronaphthalen-1-yl)oxy]propyl}-2,3-dimethyl-15-[2-(morpholin-4-yl)ethyl]-2,10,11,12,13,15-hexahydropyrazolo[4′,3′:9,10][1,6]oxazacycloundecino[8,7,6-hi]indole-8-carboxylic Acid (Enantiomer 2)]
- IC50 [2]: 42 nM
